Data reported in US10385103B2, “Cell-permeable (ICP)-SOCS3 recombinant protein and uses thereof” (CELLIVERY THERAPEUTICS, INC., priority 2014, dated 2019).

Columns and labels:
[1] = tested on: NIH3T3 cells; test: Intracellular delivery and localization of aMTD-/rPeptide-fused CRA recombinant proteins (confocal laser scanning microscopy); format: cell-based, mouse; conditions: 10 μM FITC-labeled protein, 1 hour, 37
Method: NIH3T3 cells were exposed to 10 μM of FITC-labeled protein for 1 hour at 37, and nuclei were counterstained with DAPI. Then, cells were examined by confocal laser scanning microscopy (FIG. 7). […] The intracellular localization of the fluorescent signal was determined by confocal laser scanning microscopy (LSM700, Zeiss, Germany; FIGS. 7 and 8).

[2] = tested on: RAW 264.7 cells; test: Quantitative cell-permeability of FITC-labeled aMTD- or rPeptide-fused CRA recombinant proteins (flow cytometry); format: cell-based; conditions: RAW 264.7 cells, 10 μM FITC-labeled recombinant protein, 1 hour
Outline: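 Uptake of fluorescently labeled, peptide-fused cargo proteins was quantified by flow cytometry (Guava, Millipore) and analyzed in FlowJo software. RAW 264.7 cells received 10 μM FITC-labeled protein for 1 hour at 37° C., were rinsed three times with cold PBS, and were trypsinized with 0.25% tripsin/EDTA for 20 minutes at 37° C. to remove bound protein before measurement. Permeability was expressed relative to reference proteins.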

YYNQSTCGGQCY [rP38, reference compound]
intracellular delivery and localization (internalized fluorescence signal) [1]: did not show internalized fluorescence signal | Relative Ratio to aMTD AVE [2]: 0.3±0.04 fold
